Literature values, collected in paper PMC12125103 (Naunyn-Schmiedeberg's Archives of Pharmacology, 2024).

etelcalcetide [Parsabiv]
maximum single dose in healthy humans for safe tolerance: 10 mg
